From US20090047742A1 (priority 2005, published 2009)

What was measured:
[1] = tested on: activated caspase-3 in iBMK cells; assay: immunofluorescence of activated caspase-3 in iBMK cells; type: cell-based, mouse
Description: W2, D3, X2 and K1 cells co-transfected by electroporation with a combination of plasmids pcDNA6/His/lacZ with pcDNA4/TO/mazF or pcDNA3 were grown on glass coverslips for 24 hr and fixed in 100% methanol for 10 min at −20° C. After blocking in 1% BSA-PBS for 1 hr at 37° C., cells on coverslips were incubated with anti-active caspase-3 rabbit polyclonal antibody and anti-Xpress mouse monoclonal antibody (Invitrogen, Carlsbad, Calif.) for 1 hr at 37° C. followed by incubation with rhodamine-conjugated anti-rabbit IgG and FITC-conjugated anti-mouse IgG antibody for 1 hr at 37° C. Staining was visualized by a Nikon FXA microscope equipped with epifluorescence optics (Nikon Inc., Garden City, N.Y.). The percentage of cells positive for active caspase-3 was determined by scoring 50-100 cells on each coverslip.

[2] = tested on: BCL-2 family proteins; assay: Western blot of BCL-2 family proteins in T-Rex-293 lysates; type: cell-based, human
Description: Western blot analysis and immunofluorescence were performed as previously described (Perez, D., and White, E. J. Cell Biol. 141: 1255-1266 (1998); Perez, D., and White, E. Mol. Cell 6: 53-63 (2000)). The term “Western blot” refers to a method for identifying proteins in a complex mixture; proteins are separated electrophoretically in a gel medium; transferred from the gel to a protein binding sheet or membrane; and the sheet or membrane containing the separated proteins exposed to specific antibodies which bind to, locate, and enable visualization of protein(s) of interest. T-Rex-293 (mazF/pcDNA3) and T-Rex-293 (mazF/mazE) cells were harvested at 0, 24, 48 and 72 hr post-treatment with tetracycline or staurosporine by scraping and centrifugation. All cell pellets were lysed in 2× Laemmli buffer. Cell lysates were subjected to electrophoresis on a 15% SDS-PAGE gel and then transferred onto an Immobilon-P membrane (Millipore, Bedford, Mass.). […]

[3] = tested on: human GAPDH and β-actin mRNA; assay: Northern blot analysis of cellular mRNA in T-Rex-293 cells; type: cell-based; settings: T-Rex-293 (mazF/pcDNA3) cells
Description: Northern blot analysis and real-time PCR (RT-PCR) was preformed as previously described (Zhang, Y., et al., Mol. Cell 12: 913-923 (2003); Cuconati, A., et al., Genes Dev. 17: 2922-2932 (2003)). Total RNA from tetracycline-treated (0, 24, 48 and 72 hr) or untreated (0, 24, 48 and 72 hr) T-Rex-293 (mazF/pcDNA3) and T-Rex-293 (mazF/mazE) cells for were isolated through the use of Trizol Reagent (Gibco, Carlsbad, Calif.). For Northern blot analysis, 10 μg of total RNA from each condition was subjected to formaldehyde-agarose gel electrophoresis followed by transfer onto GeneScreen Plus membrane (NEN Life Science Products, Boston, Mass.). The blot was hybridized with ^32P-labeled human GAPDH or β-actin cDNA. One hundred ng of total RNA was subjected to real time RT-PCR with the Taqman EZ-RT PCR kit (PE Applied Biosystems, Lincoln Centre Drive Foster City, Calif.) using recommended conditions provided by the vendor. Primers to analyze the level of human GAPDH mRNA were obtained from Applied Biosystems, and a probe for GAPDH was supplied with 5′ linkage to the reporter dye 2, 7-dimethoxy-4, 5-dichloro-6-carboxy-fluoroecein (JOE), and 3′ linkage to the quencher 6-carboxy-tetramethylrhodamine (TAMURA). β-actin primer sequences were 5′-[…]-3′ and 5′-[…]-3′. β-actin probe sequence was FAM-5′-[…] TTCC-3′-TAMURA. Reactions were carried out in triplicate and the relative amount of human GAPDH and β-actin mRNA was calculated from the difference in fluorescence signal in the 24-, 48- and 72-hr samples compared with the corresponding 0 hr sample.
To assess cellular mRNA levels, total RNA was isolated from whole cells of Tet-treated or -untreated T-Rex-293 cells and subjected to Northern blot analysis using human GAPDH and β-actin cDNA probes. […] Labeled single-stranded DNA fragments complementary to the specific mRNA being sought then are hybridized to the bound mRNA and the label detected by suitable means. […]

“MazF: E. coli toxin; sequence specific endoribonuclease (mRNA interferase) cleaving single-stranded RNAs at ACA sequences; expressed from plasmid pcDNA4/TO/mazF” was tested, and the “cells with activated caspase-3” value ([1]; D3 and K1 cells transiently expressing MazF) was under 0.1%, the active-caspase-3 positive cells ([1]; W2 cells transiently expressing MazF) was 58.1% and the active-caspase-3 positive cells ([1]; X2 cells transiently expressing MazF) was 47.2%. For the same substance, the “levels of BCL-2 family proteins (Western blot)” value ([2]; T-Rex-293, MazF induction 0-72 hours) was “remained unchanged”, the “truncated BID (tBID) (Western blot)” value ([2]; T-Rex-293, during MazF-induced apoptosis) was “undetectable” and the “levels of both GAPDH and β-actin mRNAs (Northern blot)” value ([3]; 48 hours post-induction of MazF) was “almost completely lost”. The “levels of both GAPDH and β-actin mRNAs (Northern blot)” value ([3]; after 24 hours of MazF induction by Tet) was “dramatically decreased”.
